The record followed here is PubChem BioAssay AID400 (SGCOxCompounds, 2006).

The target in the experiment is Tyrosine-protein phosphatase non-receptor type 5 (Homo sapiens) (UniProt P54829). Nature of the experiment: inhibition of STEP tyrosine phosphatase activity – biochemical, human, DiFMUP fluorescence (AID 400). To be noted: recombinant PTPN5, DiFMUP fluorescence phosphatase assay, active compounds read high.
[1] abbreviates: at 50 µM, enzyme 87 ng/mL, DTT 5 mM.
Where [2] appears, read: dose 200 (unit in doubt), enzyme 20 ng/mL, DTT 1 mM.
[3] abbreviates: at 50 µM, enzyme 6.5 ng/mL, DTT 5 mM.

As a reminder, the inhibition is the drop in the measured response relative to a control, in per cent.

Tyrosine-protein phosphatase non-receptor type 5 (Homo sapiens), sequence (P54829 whole entry, looked up): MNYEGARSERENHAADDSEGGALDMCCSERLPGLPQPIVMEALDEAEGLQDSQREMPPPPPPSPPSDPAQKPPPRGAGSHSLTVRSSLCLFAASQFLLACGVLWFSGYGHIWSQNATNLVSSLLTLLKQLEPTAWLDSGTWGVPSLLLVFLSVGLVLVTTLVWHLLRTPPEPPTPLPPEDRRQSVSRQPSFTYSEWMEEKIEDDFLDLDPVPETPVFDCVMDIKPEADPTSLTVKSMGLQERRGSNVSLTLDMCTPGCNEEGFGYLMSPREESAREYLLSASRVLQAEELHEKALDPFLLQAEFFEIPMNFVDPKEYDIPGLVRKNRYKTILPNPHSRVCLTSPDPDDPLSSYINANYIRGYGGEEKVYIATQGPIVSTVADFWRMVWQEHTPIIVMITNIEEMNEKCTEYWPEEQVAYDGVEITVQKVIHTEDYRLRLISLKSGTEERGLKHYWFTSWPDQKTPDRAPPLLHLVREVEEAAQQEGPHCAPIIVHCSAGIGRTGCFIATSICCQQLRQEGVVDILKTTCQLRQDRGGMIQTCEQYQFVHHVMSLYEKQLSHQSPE

Regarding `OO.OO.[K+].[O]=[V].c1cnc2c(c1)ccc1cccnc12`, the inhibition under setting [1] is 72%. Regarding `CC(C)(C)NC(=O)CCN(/N=C/c1cc(C(=O)O)ccc1O)C1=NS(=O)(=O)c2ccccc21`, under setting [1], the inhibition was 30%. Still for that read-out and setting: under `COc1ccccc1C(=O)Nc1ccc(O)cc1C(=O)O` stands 33%. For the compound `[NH-]CO.[NH-]CO.[NH-]CO.[NH-]CO.[O]=[V][O][V]=[O]`, where the note is “dose 33 (unit in doubt), enzyme 28.9 ng/mL, DTT 1 mM”, the inhibition was 43%. As to `OO.OO.[K+].[O]=[V].c1ccc(-c2ccccn2)nc1`, the inhibition under setting [1] is 67%. On to `CCn1nc(-c2ccc(Cl)cc2)nc2c(=O)n(C)c(=O)nc1-2`, for which, under setting [2], the inhibition is 67.5%. For `O=C(O)c1ccc(O)c(C=Nc2ccc3oc(-c4cccc(Cl)c4Cl)nc3c2)c1`, under setting [1], the inhibition was 33%.

In the case of `O=C([O-])c1ccccn1.OO.OO.[K+].[K+].[O]=[V]`, under setting [1], the inhibition was 90%. As to `COc1cc[n+](C(=O)N(C)C)cc1`, the inhibition under setting [3] was 14%.

As for `O=C(O)c1ccc(O)c(C=Nc2cccc(-c3nc4ccccc4o3)c2)c1`, the inhibition under setting [1] was 38%.

With `CC1(C)OC(=O)C(=Cc2ccc(Br)o2)C(=O)O1`, the inhibition under setting [3] is 7%. Still for that read-out and setting: under `CC(=O)c1ccc2c(c1)C1C=CCC1C(C(=O)O)N2` (stereo not given) stands 46%. For the compound `O=C(O)c1ccc([O-])cn1.OO.OO.[K+].[K+].[O]=[V]`, the inhibition under setting [1] was 90%. Same read-out and setting: the same measure for `F`: 91%. As to `O=P(O)(O)OP(=O)(O)O`, the inhibition under setting [2] is 31.6%. With `NC1=NC(=O)/C(=C/C=C/c2ccc([N+](=O)[O-])o2)S1`, under setting [3], the inhibition was 75.5%. Regarding `CCCCOC(OCCCC)(OCCCC)OCCCC`, under setting [2], the inhibition is 99.4%. The same measure, in the same setting: under `Cn1c(=O)[nH]c2c(c1=O)[n+](=O)c(/C=C/c1ccccc1)nn2C` stands 52%.

With `Cc1ccc2nc(-c3cc(N=Cc4cc(C(=O)O)ccc4O)ccc3O)[nH]c2c1`, the inhibition under setting [1] is 53%.

As for `O=C(O)C1Nc2c(O)cccc2C2C=CCC12` (stereo not given), under setting [3], the inhibition is 17%. For the compound `Cn1nc(-c2ccccc2)nc2c(=O)n(C)c(=O)nc1-2`, the inhibition (at 50 µM, enzyme 20 ng/mL, DTT 1 mM) is 95%.

`O=C1NC(=S)S/C1=C\C=C\c1ccc([N+](=O)[O-])o1`: under setting [3], the inhibition is 88%. For the compound `Cn1nc(/C=C/c2ccccc2)nc2c(=O)n(C)c(=O)nc1-2`, the inhibition under setting [2] is 70%. Take `O=C(O)c1ccc(O)c(C=Nc2ccc3oc(-c4ccc(F)cc4Cl)nc3c2)c1`: under setting [1], the inhibition is 70%. On to `CC(C)C(=O)Nc1ccc(O)cc1C(=O)O`, for which the inhibition under setting [1] is 29%. Same read-out and setting: under `O=C(O)c1ccc(O)cn1.OO.[O]=[V]` stands 63%. `Oc1c(Cl)c(Cl)c(O)c2nsnc12`: under setting [3], the inhibition is 33%. Consider `O=C(O)c1ccc(O)c(/C=N/N(CCO)C2=NS(=O)(=O)c3ccccc32)c1`, for which the inhibition under setting [1] was 43%. For `CCn1nc(/C=C/c2ccccc2)[n+](=O)c2c(=O)n(C)c(=O)[nH]c21`, the inhibition under setting [2] is 54%. `COc1ccc(-c2nc3cc(N=Cc4cc(C(=O)O)ccc4O)ccc3o2)cc1`: the inhibition under setting [1] is 83%.
